From US5808151A, “Biphenylamido derivatives as melatonergic agents” (Bristol-Myers Squibb Company, priority 1997, dated 1998) come the findings set out here.

In assay [1] the target is T1, ML1a human melatonin receptor (Homo sapiens, UniProt P48039).
T1 construct: expressed in transfected cells; host or cells: COS-1 cells
Nature of the assay: Melatonergic binding: ML1a human melatonin receptor binding (2-[125I]-iodomelatonin, COS-1 cell membranes). The note with it: human ML1a in COS-1 cells; 37° C., 1 hour; read-out: In-Vitro Receptor Binding Activities ML1a (IC50). On the procedure: (§1) The melatonergic binding of the compounds of Formula I was determined by the method of Reppert, S. M., et al., as described in Neuron, Vol. 13, 1177-1185 (1994) and Proc. Nat. Acad. Sci. USA, 92, 8734-8738 (1995) and also as described by Stankov, B., et al., "Characterization and mapping of melatonin receptors in the brain of three mammalian species: Rabbit, horse and sheep," in Neuroendocrinology, 53, 214-221 (1991). The assays were incubated at 37° C. for 1 hour, and the reaction was terminated by filtration through a Brandel cell harvester. The filters were washed 3 times with wash buffer. […] The reagents, membranes, and techniques used in the melatonergic binding assays are more fully described below:
(§2) (a) 50 mM Tris buffer containing 12.5 mM MgCl2 and 2 mM EDTA (pH 7.4 at 37° C.).
(§3) (b) Wash buffer: 20 mM Tris base containing 2 mM MgCl2 (pH 7.4 at room temperature).
(§4) (c) 6-Chloromelatonin (10^-5 M final concn.).
(§5) (d) 2-[^125 I]-Iodomelatonin. Source: New England Nuclear
The cDNA (human ML1a) was introduced into COS-1 cells by the DEAE-dextran method. Three days later, the media was removed, the plates washed with phosphate buffered saline, the cells removed using Hank's balanced salt solution and pelleted. The supernatant was discarded and the pellets frozen. For preparing membrane homogenates, the pellets are thawed on ice, and resuspended in TME buffer [Tris base, MgCl2, EDTA (pH 7.4 at 37° C.], supplemented with aprotinin, leupeptin and phenylmethyl-sulfonylfluoride. The cells were then homogenized using a dounce homogenizer and centrifuged. The resulting pellet was resuspended with a dounce homogenizer in TME and frozen. On the day of assay, a small aliquot was thawed on ice and resuspended in TME buffer (1:1000).

Assay [2] addresses ML1 rabbit melatonin receptor. As to the kind of experiment: Melatonergic binding: ML1 rabbit melatonin receptor binding (2-[125I]-iodomelatonin, rabbit parietal cortex). On the set-up: species or system rabbit (Male New Zealand white). To be noted: 37° C., 1 hour, read-out: In-Vitro Receptor Binding Activities ML1 (IC50). On the procedure:
as §1, §2, §3, §4, §5
Male New Zealand white rabbits (Hazelton Research) are decapitated, the brains are rapidly removed and chilled. The parietal cortex is crudely dissected and the tissue frozen on dry ice at -80° C. until assayed. Tissue is weighed and thawed in 20 mls of ice-cold Tris buffer (a) and then homogenized by treatment with a polytron for 10 seconds at setting 17. Ice cold Tris (a) is added to a volume of 40 ml. The homogenate is centrifuged in a Sorvall-SS-34 head at 19,000 rpm (44,000× g) for 20 min at 4° C. The resulting supernatant is decanted and discarded. The pellet is re-homogenized in an additional 20 ml of Tris buffer, diluted and centrifuged as before. The supernatant is decanted and discarded. The resulting pellet is homogenized in 20 volumes of Tris buffer per gram of original tissue (a 1:20 homogenate), chilled, and held on ice until assayed.

pIC50: −log10 of the molar value. Where only a bound is given, the exact number is not on record here.

T1 sequence (P48039 whole entry): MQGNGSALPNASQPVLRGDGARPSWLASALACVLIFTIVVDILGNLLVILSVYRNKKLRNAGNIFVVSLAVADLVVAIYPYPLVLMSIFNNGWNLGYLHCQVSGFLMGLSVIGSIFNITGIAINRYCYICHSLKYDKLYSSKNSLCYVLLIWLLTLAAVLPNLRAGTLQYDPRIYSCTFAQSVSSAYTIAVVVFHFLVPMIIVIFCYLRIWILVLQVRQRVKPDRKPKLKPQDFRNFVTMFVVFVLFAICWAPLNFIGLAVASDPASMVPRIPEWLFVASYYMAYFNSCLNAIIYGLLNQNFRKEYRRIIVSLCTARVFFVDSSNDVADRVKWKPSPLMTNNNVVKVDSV

Turning to `CCCC(=O)Nc1cccc(-c2cccc(OC)c2)c1` [Example 1, N-(3'-Methoxy-[1,1'-biphenyl]-3-yl)butanamide], the pIC50 (in general, the negative decadic logarithm of the IC50, by convention in mol/L) in assay [1] is greater than 7.00; in assay [2], greater than 8.00.

Turning to `COc1cccc(-c2cccc(NC(=O)C(C)C)c2)c1` [Example 2, N-(3'-Methoxy-[1,1'-biphenyl]-3-yl)2-methylpropanamide], the negative logarithm of the IC50 (pIC50) in assay [1] was greater than 7.00; in assay [2], less than 7.30.

Regarding `COc1cccc(-c2cccc(NC(=O)C3CC3)c2)c1` [Example 3, N-(3'-Methoxy-[1,1'-biphenyl]-3-yl)cyclopropanecarboxamide], the pIC50 in assay [1] is greater than 7.00.

In the case of `CCC(=O)Nc1cccc(-c2cccc(OC)c2)c1` [Example 4, N-(3'-Methoxy-[1,1 '-biphenyl]-3-yl)propanamide], the negative-log IC50 (pIC50) in assay [1] was greater than 7.00.

Turning to `COCC(=O)Nc1cccc(-c2cccc(OC)c2)c1` [Example 5, N-(3'-Methoxy-[1,1'-biphenyl]-3-yl)-2-methoxyacetamide], the negative logarithm of the IC50 (pIC50) in assay [1] was less than 6.52.

As to `CCNC(=O)Nc1cccc(-c2cccc(OC)c2)c1` [Example 6, N-Ethyl N'-(3'-methoxy-[1,1'-biphenyl]-3-yl)urea], the results for the pIC50 in assay [1] and in assay [2] were less than 6.52 and less than 7.30, respectively.

Take `CCCC(=O)NCc1ccccc1-c1cccc(OC)c1` [Example 7, N-[(3'-Methoxy[1,1'-biphenyl]-2-yl)methyl]butanamide]: the negative logarithm of the IC50 (pIC50) was 6.52 to 7.00 in assay [1] and 7.30 to 8.00 in assay [2].

In the case of `COc1cccc(-c2ccccc2CNC(=O)C(C)C)c1` [Example 8, N-[(3'-Methoxy[1,1'-biphenyl]-2-yl)methyl]-2-methylpropanamide], the pIC50 in assay [1] was 6.52 to 7.00; in assay [2] it was greater than 8.00.

As for `CCNC(=O)NCc1ccccc1-c1cccc(OC)c1` [Example 9, N-Ethyl N'-[(3'-methoxy[1,1'-biphenyl]-2-yl)methyl]urea], the pIC50 was 6.52 to 7.00 in assay [1] and greater than 8.00 in assay [2].

For `CCCC(=O)NCc1cccc(-c2cccc(OC)c2)c1` [Example 10, N-[(3'-methoxy-[1,1'-biphenyl]-3-yl)methyl]butanamide], the pIC50 in assay [1] is less than 6.52; in assay [2] it was 7.30 to 8.00.

`COc1cccc(-c2cccc(CNC(=O)C(C)C)c2)c1` [Example 11, N-[(3'-methoxy-[1,1'-biphenyl]-3-yl)methyl]-2-methylpropanamide]: the pIC50 is 6.52 to 7.00 in assay [1] and greater than 8.00 in assay [2].

Consider `CCNC(=O)NCc1cccc(-c2cccc(OC)c2)c1` [Example 12, N-Ethyl N'-[(3'-methoxy-[1,1'-biphenyl]-3-yl)methyl]urea], for which the negative-log IC50 (pIC50) is less than 6.52 in assay [1] and 7.30 to 8.00 in assay [2].
